In the NIST ThermoML archive (doi:10.1016/j.jct.2018.08.035):

Assay: xn = mol fraction of the nth substance listed
Conditions: 100 kPa, Liquid, Vibrating tube method

CCC(O)CC [3-pentanol] + C[N+](=O)[O-]
Conditions | mass density [kg/m3]
286.95 K, x1 = 0.629 | 904.586
287.05 K, x1 = 0.629 | 904.424
287.15 K, x1 = 0.629 | 904.324
287.25 K, x1 = 0.629 | 904.302
287.35 K, x1 = 0.629 | 904.234
287.45 K, x1 = 0.629 | 904.174
287.55 K, x1 = 0.629 | 904.105
287.66 K, x1 = 0.629 | 904.02
287.75 K, x1 = 0.629 | 903.747
287.86 K, x1 = 0.629 | 903.73
287.96 K, x1 = 0.629 | 903.653
288.06 K, x1 = 0.629 | 903.559
288.16 K, x1 = 0.629 | 903.339
288.26 K, x1 = 0.629 | 903.249
288.36 K, x1 = 0.629 | 903.208
288.46 K, x1 = 0.629 | 903.194
288.56 K, x1 = 0.629 | 903.023
288.66 K, x1 = 0.629 | 902.916
288.75 K, x1 = 0.629 | 902.883
288.86 K, x1 = 0.629 | 902.656
288.95 K, x1 = 0.629 | 902.639
289.06 K, x1 = 0.629 | 902.563
289.15 K, x1 = 0.246 | 1016.83
289.15 K, x1 = 0.266 | 1014.93
289.15 K, x1 = 0.275 | 1013.85
289.15 K, x1 = 0.3 | 1007.8
289.15 K, x1 = 0.325 | 1002.84
289.15 K, x1 = 0.338 | 1001.68
289.15 K, x1 = 0.363 | 999.874
289.15 K, x1 = 0.382 | 999.889
289.15 K, x1 = 0.407 | 999.35
289.15 K, x1 = 0.486 | 980.562
289.15 K, x1 = 0.488 | 978.895
289.15 K, x1 = 0.546 | 955.829
289.15 K, x1 = 0.573 | 937.786
289.15 K, x1 = 0.615 | 911.044
289.15 K, x1 = 0.629 | 902.484
289.16 K, x1 = 0.587 | 928.424
289.25 K, x1 = 0.246 | 1015.69
289.25 K, x1 = 0.266 | 1014.12
289.25 K, x1 = 0.275 | 1013.22
289.25 K, x1 = 0.3 | 1007.17
289.25 K, x1 = 0.325 | 1002.28
289.25 K, x1 = 0.338 | 1000.75
289.25 K, x1 = 0.363 | 998.168
289.25 K, x1 = 0.382 | 998.358
289.25 K, x1 = 0.407 | 997.887
289.25 K, x1 = 0.414 | 998.161
289.25 K, x1 = 0.486 | 979.734
289.25 K, x1 = 0.488 | 978.223
289.25 K, x1 = 0.546 | 953.328
289.25 K, x1 = 0.573 | 937.432
289.25 K, x1 = 0.587 | 924.098
289.25 K, x1 = 0.629 | 902.36
289.26 K, x1 = 0.615 | 910.892
289.35 K, x1 = 0.3 | 1006.58
289.35 K, x1 = 0.338 | 999.725
289.36 K, x1 = 0.246 | 1014.41
289.36 K, x1 = 0.266 | 1013.24
289.36 K, x1 = 0.275 | 1012.41
289.36 K, x1 = 0.325 | 1001.72
289.36 K, x1 = 0.363 | 996.975
289.36 K, x1 = 0.382 | 996.614
289.36 K, x1 = 0.407 | 996.236
289.36 K, x1 = 0.414 | 996.775
289.36 K, x1 = 0.486 | 978.988
289.36 K, x1 = 0.488 | 977.267
289.36 K, x1 = 0.546 | 952.752
289.36 K, x1 = 0.573 | 936.899
289.36 K, x1 = 0.587 | 923.859
289.36 K, x1 = 0.615 | 909.942
289.36 K, x1 = 0.629 | 902.109
289.45 K, x1 = 0.246 | 1013.13
289.45 K, x1 = 0.266 | 1012.22
289.45 K, x1 = 0.275 | 1011.52
289.45 K, x1 = 0.3 | 1005.82
289.45 K, x1 = 0.325 | 1001.04
289.45 K, x1 = 0.338 | 998.278
289.45 K, x1 = 0.363 | 996.016
289.45 K, x1 = 0.382 | 994.795
289.45 K, x1 = 0.407 | 994.989
289.45 K, x1 = 0.414 | 995.114
289.45 K, x1 = 0.486 | 977.635
289.45 K, x1 = 0.488 | 975.638
289.45 K, x1 = 0.546 | 951.819
289.45 K, x1 = 0.573 | 936.914
289.45 K, x1 = 0.587 | 923.684
289.45 K, x1 = 0.629 | 901.973
289.46 K, x1 = 0.615 | 903.573
289.55 K, x1 = 0.266 | 1011
289.55 K, x1 = 0.3 | 1005.09
289.55 K, x1 = 0.325 | 1000.44
289.55 K, x1 = 0.407 | 993.27
289.55 K, x1 = 0.486 | 976.784
289.55 K, x1 = 0.546 | 950.242
289.55 K, x1 = 0.573 | 934.004
289.55 K, x1 = 0.629 | 901.33
289.56 K, x1 = 0.246 | 1011.83
289.56 K, x1 = 0.275 | 1010.74
289.56 K, x1 = 0.338 | 998.17
289.56 K, x1 = 0.363 | 995.361
289.56 K, x1 = 0.382 | 993.579
289.56 K, x1 = 0.414 | 993.6
289.56 K, x1 = 0.488 | 974.397
289.56 K, x1 = 0.587 | 923.551
289.56 K, x1 = 0.615 | 903.035
289.65 K, x1 = 0.246 | 1010.76
289.65 K, x1 = 0.266 | 1009.81
289.65 K, x1 = 0.275 | 1009.82
289.65 K, x1 = 0.3 | 1004.38
289.65 K, x1 = 0.325 | 999.918
289.65 K, x1 = 0.363 | 994.656
289.65 K, x1 = 0.382 | 992.659
289.65 K, x1 = 0.407 | 991.642
289.65 K, x1 = 0.414 | 991.992
289.65 K, x1 = 0.486 | 975.844
289.65 K, x1 = 0.488 | 973.516
289.65 K, x1 = 0.546 | 949.056
289.65 K, x1 = 0.573 | 932.207
289.65 K, x1 = 0.587 | 923.409
289.65 K, x1 = 0.615 | 903.013
289.65 K, x1 = 0.629 | 896.019
289.66 K, x1 = 0.338 | 997.588
289.75 K, x1 = 0.246 | 1009.91
289.75 K, x1 = 0.266 | 1008.57
289.75 K, x1 = 0.275 | 1008.78
289.75 K, x1 = 0.3 | 1003.47
289.75 K, x1 = 0.325 | 999.093
289.75 K, x1 = 0.363 | 994.035
289.75 K, x1 = 0.382 | 991.551
289.75 K, x1 = 0.407 | 989.735
289.75 K, x1 = 0.414 | 990.174
289.75 K, x1 = 0.486 | 974.653
289.75 K, x1 = 0.488 | 972.561
289.75 K, x1 = 0.546 | 947.686
289.75 K, x1 = 0.573 | 929.383
289.75 K, x1 = 0.587 | 924.024
289.75 K, x1 = 0.615 | 902.898
289.76 K, x1 = 0.338 | 996.84
289.85 K, x1 = 0.266 | 1007.2
289.85 K, x1 = 0.275 | 1007.7
289.85 K, x1 = 0.3 | 1002.58
289.85 K, x1 = 0.325 | 998.305
289.85 K, x1 = 0.363 | 993.362
289.85 K, x1 = 0.382 | 990.377
289.85 K, x1 = 0.407 | 988.132
289.85 K, x1 = 0.414 | 988.452
289.85 K, x1 = 0.486 | 973.161
289.85 K, x1 = 0.488 | 971.375
289.85 K, x1 = 0.546 | 946.847
289.85 K, x1 = 0.573 | 928.807
289.85 K, x1 = 0.587 | 917.506
289.86 K, x1 = 0.246 | 1009.43
289.86 K, x1 = 0.338 | 996.331
289.86 K, x1 = 0.615 | 902.789
289.95 K, x1 = 0.266 | 1005.77
289.95 K, x1 = 0.275 | 1006.41
